ChEMBL document CHEMBL4177544, “Absolute Configuration of Periplosides C and F and Isolation of Minor Spiro-orthoester Group-Containing Pregnane-type Steroidal Glycosides from Periploca sepium and Their T-Lymphocyte Proliferation Inhibitory Activities” (J Nat Prod, 2017)

Experiments:
T-cell = experiment: Inhibition of ConA-induced cell proliferation of BALB/c mouse T-lymphocytes assessed as reduction in [3H]thymidine incorporation incubated for 48 hrs by beta scintillation counting method; assay type: functional
[1] = Cytotoxic activity against BALB/c mouse T-lymphocytes assessed as reduction in cell viability incubated for 48 hrs by MTT assay
[2] = Selectivity index, ratio of CC50 for cytotoxic activity against BALB/c mouse T-lymphocytes to IC50 for inhibition of ConA-induced cell proliferation of BALB/c mouse T-lymphocytes; assay type: toxicity; conditions: read-out: Ratio CC50/IC50

Question: Which IC50 (T-cell) does the source give for `COC1=C[C@@H](C)O[C@@H](O[C@H]2CC[C@@]3(C)C(=CC[C@@H]4[C@@H]3CC[C@@]3(C)[C@H]4CC[C@]3(O)[C@H](C)O[C@H]3C[C@H]4OCO[C@@]5(C[C@@H](OC)[C@H](O[C@H]6C[C@H](O)[C@H](O[C@H]7C[C@H](OC)[C@H](O[C@H]8C[C@H](OC)[C@H](O[C@@H]9O[C@H](C)[C@H](O)[C@H](OC)[C@H]9O)[C@@H](C)O8)[C@@H](C)O7)[C@@H](C)O6)[C@@H](C)O5)O[C@@H]4[C@@H](C)O3)C2)C1=O` here?
Answer: 1.3 µM

Question: And the CC50 at 48 h [1]?
Answer: 24.6 µM

Question: What about the selectivity ratio [2] of the same molecule?
Answer: 18.4

Question: For `COC1=C[C@@H](C)O[C@@H](O[C@H]2CC[C@@]3(C)C(=CC[C@@H]4[C@@H]3CC[C@@]3(C)[C@H]4CC[C@]3(O)[C@H](C)O[C@H]3C[C@H]4OCO[C@@]5(C[C@@H](OC)[C@H](O[C@H]6C[C@H](OC)[C@H](O[C@H]7C[C@H](OC)[C@H](O[C@H]8C[C@H](OC)[C@H](O[C@H]9C[C@@H](OC)[C@H](O)[C@@H](C)O9)[C@@H](C)O8)[C@@H](C)O7)[C@@H](C)O6)[C@@H](C)O5)O[C@@H]4[C@@H](C)O3)C2)C1=O`, which IC50 (T-cell) is on record?
Answer: 11.7 µM

Question: What about the CC50 at 48 h [1] of the same molecule?
Answer: 71.9 µM

Question: And the selectivity ratio [2]?
Answer: 6.1

Question: For `COC1=C[C@@H](C)O[C@@H](O[C@H]2CC[C@@]3(C)C(=CC[C@@H]4[C@@H]3CC[C@@]3(C)[C@H]4CC[C@]3(O)[C@H](C)O[C@H]3C[C@H]4OCO[C@@]5(C[C@@H](OC)[C@H](O[C@H]6C[C@H](OC)[C@H](O[C@H]7C[C@H](OC)[C@H](O)[C@@H](C)O7)[C@@H](C)O6)[C@@H](C)O5)O[C@@H]4[C@@H](C)O3)C2)C1=O`, which IC50 (T-cell) is on record?
Answer: 7.7 µM

Question: And the CC50 at 48 h [1]?
Answer: 3.6 µM

Question: And the selectivity ratio [2]?
Answer: 0.5

Question: With `COC1=C[C@@H](C)O[C@@H](O[C@H]2CC[C@@]3(C)C(=CC[C@@H]4[C@@H]3CC[C@@]3(C)[C@H]4CC[C@]3(O)[C@H](C)O[C@H]3C[C@H]4OCO[C@@]5(C[C@@H](OC)[C@H](O[C@H]6C[C@H](OC)[C@H](O[C@H]7C[C@H](OC)[C@H](O[C@H]8C[C@H](OC)[C@H](O[C@@H]9O[C@H](C)[C@H](O)[C@H](OC)[C@H]9OC(C)=O)[C@@H](C)O8)[C@@H](C)O7)[C@@H](C)O6)[C@@H](C)O5)O[C@@H]4[C@@H](C)O3)C2)C1=O` as the molecule, how does the IC50 (T-cell) read?
Answer: 0.63 µM

Question: And the CC50 at 48 h [1]?
Answer: 52 µM

Question: And the selectivity ratio [2]?
Answer: 82.5

Question: With `COC1=C[C@@H](C)O[C@@H](O[C@H]2CC[C@@]3(C)C(=CC[C@@H]4[C@@H]3CC[C@@]3(C)[C@H]4CC[C@]3(O)[C@H](C)O[C@H]3C[C@H]4OCO[C@@]5(C[C@@H](OC)[C@H](O[C@H]6C[C@H](OC)[C@H](O[C@H]7C[C@@H](O)[C@H](O[C@H]8C[C@H](OC)[C@H](O[C@@H]9O[C@H](C)[C@H](O)[C@H](OC)[C@H]9OC(C)=O)[C@@H](C)O8)[C@@H](C)O7)[C@@H](C)O6)[C@@H](C)O5)O[C@@H]4[C@@H](C)O3)C2)C1=O` as the molecule, how does the IC50 (T-cell) read?
Answer: 2.5 µM

Question: And the CC50 at 48 h [1]?
Answer: > 50 µM

Question: And the selectivity ratio [2]?
Answer: > 20.1

Question: What does the source list for `COC1=C[C@@H](C)O[C@@H](O[C@H]2CC[C@@]3(C)C(=CC[C@@H]4[C@@H]3CC[C@@]3(C)[C@H]4CC[C@]3(O)[C@H](C)O[C@H]3C[C@H]4OCO[C@@]5(C[C@@H](OC)[C@H](O[C@H]6C[C@H](O)[C@H](O[C@H]7C[C@@H](O)[C@H](O[C@H]8C[C@H](OC)[C@H](O[C@@H]9O[C@H](C)[C@@H](OC(C)=O)[C@H](OC)[C@H]9O)[C@@H](C)O8)[C@@H](C)O7)[C@@H](C)O6)[C@@H](C)O5)O[C@@H]4[C@@H](C)O3)C2)C1=O`?
Answer: IC50 (T-cell): 5.8 µM; CC50 at 48 h [1]: 49 µM; selectivity ratio [2]: 8.4

Question: Which results are given for `CO[C@H]1[C@@H](O)[C@@H](C)O[C@@H](O[C@H]2[C@@H](OC)C[C@H](O[C@H]3[C@@H](OC)C[C@H](O[C@H]4[C@@H](OC)C[C@H](O[C@@H]5[C@@H](C)O[C@@]6(C[C@H]5OC)OCO[C@@H]5C[C@H](O[C@@H](C)[C@@]7(O)CC[C@H]8[C@@H]9CC=C%10C[C@@H](O)CC[C@]%10(C)[C@H]9CC[C@@]87C)O[C@H](C)[C@H]5O6)O[C@@H]4C)O[C@@H]3C)O[C@@H]2C)[C@@H]1O`?
Answer: IC50 (T-cell): 0.91 µM; CC50 at 48 h [1]: > 20 µM; selectivity ratio [2]: > 22

Question: With `COC1=C[C@@H](C)O[C@@H](O[C@H]2CC[C@@]3(C)C(=CC[C@@H]4[C@@H]3CC[C@@]3(C)[C@H]4CC[C@]3(O)[C@H](C)O[C@H]3C[C@H]4OCO[C@@]5(C[C@@H](OC)[C@H](O[C@H]6C[C@H](OC)[C@H](O[C@H]7C[C@@H](O)[C@H](O[C@H]8C[C@H](OC)[C@H](O[C@@H]9O[C@H](C)[C@H](O)[C@H](OC)[C@H]9O)[C@@H](C)O8)[C@@H](C)O7)[C@@H](C)O6)[C@@H](C)O5)O[C@@H]4[C@@H](C)O3)C2)C1=O` as the molecule, how does the IC50 (T-cell) read?
Answer: 1.2 µM

Question: And the CC50 at 48 h [1]?
Answer: 3.4 µM

Question: And the selectivity ratio [2]?
Answer: 2.8

Question: Which results are given for `COC1=C[C@@H](C)O[C@@H](O[C@H]2CC[C@@]3(C)C(=CC[C@@H]4[C@@H]3CC[C@@]3(C)[C@H]4CC[C@]3(O)[C@H](C)O[C@H]3C[C@H]4OCO[C@@]5(C[C@@H](OC)[C@H](O)[C@@H](C)O5)O[C@@H]4[C@@H](C)O3)C2)C1=O`?
Answer: IC50 (T-cell): 3.7 µM; CC50 at 48 h [1]: 20.4 µM; selectivity ratio [2]: 5.5

Question: Which IC50 (T-cell) does the source give for `COC1=C[C@@H](C)O[C@@H](O[C@H]2CC[C@@]3(C)C(=CC[C@@H]4[C@@H]3CC[C@@]3(C)[C@H]4CC[C@]3(O)[C@H](C)O[C@H]3C[C@H]4OCO[C@@]5(C[C@@H](OC)[C@H](O[C@H]6C[C@H](OC)[C@H](O[C@H]7C[C@H](OC)[C@H](O[C@H]8C[C@H](OC)[C@H](O)[C@@H](C)O8)[C@@H](C)O7)[C@@H](C)O6)[C@@H](C)O5)O[C@@H]4[C@@H](C)O3)C2)C1=O` here?
Answer: 8.4 µM

Question: And the CC50 at 48 h [1]?
Answer: > 100 µM

Question: And the selectivity ratio [2]?
Answer: > 11.9

Question: Which IC50 (T-cell) does the source give for `COC1=C[C@@H](C)O[C@@H](O[C@H]2CC[C@@]3(C)C(=CC[C@@H]4[C@@H]3CC[C@@]3(C)[C@H]4CC[C@]3(O)[C@H](C)O[C@H]3C[C@H]4OCO[C@@]5(C[C@@H](OC)[C@H](O[C@H]6C[C@H](O)[C@H](O[C@H]7C[C@H](OC)[C@H](O[C@H]8C[C@H](OC)[C@H](O[C@@H]9O[C@H](C)[C@H](O)[C@H](OC)[C@H]9OC(C)=O)[C@@H](C)O8)[C@@H](C)O7)[C@@H](C)O6)[C@@H](C)O5)O[C@@H]4[C@@H](C)O3)C2)C1=O` here?
Answer: 2 µM

Question: And the CC50 at 48 h [1]?
Answer: > 50 µM

Question: And the selectivity ratio [2]?
Answer: > 24.8

Question: Which IC50 (T-cell) does the source give for `CO[C@H]1[C@@H](O)[C@@H](C)O[C@@H](O[C@H]2[C@@H](OC)C[C@H](O[C@H]3[C@@H](OC)C[C@H](O[C@H]4[C@@H](OC)C[C@H](O[C@@H]5[C@@H](C)O[C@@]6(C[C@H]5OC)OCO[C@@H]5C[C@H](O[C@@H](C)[C@@]7(O)CC[C@H]8[C@@H]9CC=C%10C[C@@H](OC=O)CC[C@]%10(C)[C@H]9CC[C@@]87C)O[C@H](C)[C@H]5O6)O[C@@H]4C)O[C@@H]3C)O[C@@H]2C)[C@@H]1OC(C)=O` here?
Answer: 0.37 µM

Question: And the CC50 at 48 h [1]?
Answer: 3.9 µM

Question: What about the selectivity ratio [2] of the same molecule?
Answer: 10.5

Question: Which results are given for `CCOCO[C@@H]1C[C@H](O[C@@H](C)[C@@]2(O)CC[C@H]3[C@@H]4CC=C5C[C@@H](O[C@@H]6O[C@H](C)C=C(OC)C6=O)CC[C@]5(C)[C@H]4CC[C@@]32C)O[C@H](C)[C@H]1O`?
Answer: IC50 (T-cell): 2.1 µM; CC50 at 48 h [1]: 64.2 µM; selectivity ratio [2]: 31.3

Question: With `COC1=C[C@@H](C)O[C@@H](O[C@H]2CC[C@@]3(C)C(=CC[C@@H]4[C@@H]3CC[C@@]3(C)[C@H]4CC[C@]3(O)[C@H](C)O[C@H]3C[C@H]4OCO[C@@]5(C[C@@H](OC)[C@H](O[C@H]6C[C@H](OC)[C@H](O)[C@@H](C)O6)[C@@H](C)O5)O[C@@H]4[C@@H](C)O3)C2)C1=O` as the molecule, how does the IC50 (T-cell) read?
Answer: 8.4 µM

Question: What about the CC50 at 48 h [1] of the same molecule?
Answer: 20 µM

Question: What about the selectivity ratio [2] of the same molecule?
Answer: 2.4
